Non-standard residues stand in square brackets, D forms with d. Residues, ends and D or L forms follow the SMILES beside them. No end group written: not given here.
Columns and labels:
Format in all cases: cell-based, Pseudomonas aeruginosa
[1] = tested on: P. aeruginosa ATCC 25668, mucoid strain; settings: for inhibitory effect on biofilm formation: 1/32 and 1/64 MIC, 24 h
Description: (§1) An ON bacterial culture was diluted to 2 × 10^6 cells/mL in an LB medium. 50 µL/well were seeded in a sterile non-treated polystyrene 96-well plate (Corning) and added with 50 µL LB medium containing serial dilutions of each compound (final concentrations of L- and D-Q53 CecB peptides: from 0.034 to 17.6 µM; final concentrations of tobramycin: 0.27 and 0.53 μM, and from 2.14 to 17 μM). Each condition was tested in three-six replicates. Wells containing untreated bacteria (negative controls) or LB medium only (blank) were followed in parallel. Each plate was incubated for 24 h at 37 °C without agitation. After washing twice, samples were stained with a 0.1% crystal violet solution for 20 min, washed three times, and incubated in 30% acetic acid for 20 min, as in [74]. Plates were read at 595 nm using a microplate reader. For each sample, the biofilm biomass percentage was calculated relative to that of the untreated control showing the highest OD value, set equal to 100%. Each experiment was performed at least twice.

[2] = tested on: P. aeruginosa ATCC 27853, non-mucoid strain; settings: for inhibitory effect on biofilm formation: 1/32 and 1/64 MIC, 24 h; for decrement in biofilm biomass (inhibition of biofilm formation): ATCC 27853, 24 h
Description: as §1

P. aeruginosa ATCC 27853 = test: CFU assay of medium over treated 24 h old biofilm; settings: for mean CFUs/mL decrement vs untreated control: 1 MIC, 1 h; for living bacterial cells in the medium, Mean ± SEM: 1 h treatment of 24 h-old biofilm with 1 MIC (2.2 μM), four experiments, control 3.06 ± 2.07 × 10^14
P. aeruginosa ATCC 25668 = test: CFU assay of medium over treated 24 h old biofilm; settings: for mean CFUs/mL decrement vs untreated control: 1 MIC, 1 h; for living bacterial cells in the medium, Mean ± SEM: 1 h treatment of 24 h-old biofilm with 1 MIC (2.2 μM), four experiments, control 2.67 ± 2.67 × 10^15
[3] = tested on: P. aeruginosa ATCC 27853 and ATCC 25668 strains; test: Growth curves with sub-MIC concentrations; settings: growth curves 14 h, OD600, AUC vs untreated; both strains; 1 MIC = 2.2 μM
Description: Microbial suspensions in LB medium (positive controls) and wells with LB medium only (negative controls) were followed in parallel. Plates were incubated at 37 °C with agitation (300 rpm), and the absorbance was measured every 2 h for 14 h at 600 nm. For each time point, a ΔOD600 was determined by subtracting the OD600 recorded at time 0 from those obtained at the different time-points. To establish the peptide concentration not inhibiting bacterial growth, for each treatment, the Area Under the Curve (AUC) was calculated and compared to that of untreated controls.
Supplementary Figure S3. Growth curves of P. aeruginosa treated with of L-Q 53 CecB and D-Q 53 CecB peptides at sub-MIC concentrations. ATCC 27853 strain treated with (A) L-Q 53 CecB and (B) D-Q 53 CecB. ATCC 25668 strain treated with (C) L-Q 53 CecB and (D) D-Q 53 CecB. Bacteria treated with 1 MIC L- or D- Q53 CecB peptides and untreated bacteria represent positive and negative controls, respectively. One-w ay ANOVA followed by post-h oc Dunnett’s tests […]
samples and negative controls [A TCC 27853: (A) F4, 10 = 257.8, p < 0.0001; 1/2 MIC L-Q 53 CecB vs negative controls:
Dunnett’s test p > 0.05, ns; (B) F 4,10 = 256.9, p < 0.0001; 1/4 MIC D-Q 53 CecB vs negative controls: Dunnett’s test p > 0.05, […]
= 43.58, p < 0.0001; 1/4 MIC D-Q 53 CecB vs negative controls: Dunnett’s test p > 0.05, ns]. […]

[4] = tested on: P. aeruginosa ATCC 25668 strain; test: EPS determination, phenol-sulfuric acid method; settings: 20 h incubation; 1/2 MIC L-Q53 CecB or 1/4 MIC D-Q53 CecB; OD490
Description: Experiments were performed in LB medium supplemented 2% glucose to enhance the EPS production, as in [46]. Five mL of bacterial cultures (1 × 10^6 cells/mL) were added to the same volume of the peptide at a dilution not-inhibiting the bacterial growth (final concentrations 1.1 and 0.55 µM for L- and D-Q53 CecB, respectively, as in Section 4.11) and incubated at 37 °C for 20 h with agitation (200 rpm). 10 mL of bacterial culture (5 × 10^5 cells/mL) without any peptide were grown in parallel. Samples were incubated at 37 °C for 20 h with agitation. Glucan levels were determined as in [46, 75] with some modifications. For each sample, 5 mL were centrifuged at 5000× g for 10 min, and supernatants were collected in clean tubes; pellets were washed twice in 2.5 mL autoclaved water and centrifuged at 5000× g for 10 min, collecting supernatants again. Three volumes of chilled absolute ethanol were added to the collected supernatants and placed at 4 °C ON to precipitate polysaccharides. After centrifugation at 10,000× g for 10 min, pellets were washed with chilled ethanol 70% and resuspended in 5 mL 0.1 M NaOH. Two mL of 5% aqueous solution of phenol and 5 mL of concentrated sulphuric acid were added. Mixtures were incubated 10 min at RT in the dark, vortexed 30 sec, placed in a water bath at 25 °C 20 min and read at 490 nm. The experiment was performed four times, each condition in duplicate.

[5] = tested on: P. aeruginosa biofilms (ATCC 25668); test: Confocal microscopy of pre-formed biofilm, thickness; settings: 1 h treatment with 1 MIC (2.2 μM) of 24 h old biofilm; 6-8 confocal fields
Description: Bacteria cells (1 × 10^6 cells/mL) were grown in Permanox four-wells chamber slide systems (1.8 cm^2/well; Nunc® Lab-Tek® Chamber SlideTM system) at 37 °C for 24 h without agitation to allow biofilm formation. […] Negative controls, treated with LB only, were followed in parallel. […] After each staining, samples were washed twice with PBS. After washing, samples were fixed in 4% Paraformaldehyde, mounted in VECTASHIELD® mounting medium (Vector Laboratories, Newark, CA, USA), and observed using a Zeyss LSM 900 Airyscan 2 confocal microscope and a ×63 oil immersion objective. Optical sections (Z-series) were taken at 0.2 μm intervals. Experiments were performed four times (one-two replicates per condition). […] EPS was visualized using a 405 nm wavelength for excitation and 413-480 nm for emission (blue); to detect proteins or Propidium Iodide (red), a 543 nm wavelength for excitation and 590-610 nm for emission were used. Post-acquisition analyses were performed with Fiji (http://fiji.sc/wiki/index.php, downloaded on 4 April 2022). Cross-section views (x-z and y-z planes were obtained with the “Orthogonal View” plugin. To evaluate live and dead cells, images of single 0.13 μm slices taken in the upper part of the biofilm (i.e., in contact with the peptide during treatment) were processed using the “Counting Objects” plugin, and the same threshold level for red and green colors.

Compound | inhibitory effect on biofilm formation [1] | decrement in biofilm biomass (inhibition of biofilm formation) ([1]; ATCC 25668, 24 h) [%] | mean decrement in biofilm biomass (inhibition of biofilm formation) ([1]; ATCC 25668, 24 h) [%] | inhibitory effect on biofilm formation [2] | decrement in biofilm biomass (inhibition of biofilm formation) [2] [%] | mean CFUs/mL decrement vs untreated control (P. aeruginosa ATCC 27853) | living bacterial cells in the medium, Mean ± SEM (P. aeruginosa ATCC 27853) | mean CFUs/mL decrement vs untreated control (P. aeruginosa ATCC 25668) | living bacterial cells in the medium, Mean ± SEM (P. aeruginosa ATCC 25668) | sub-MIC concentration not inhibiting bacterial growth [3] | effect on water-soluble EPS production [4] | reduction in biofilm thickness vs untreated controls [5]
CC[C@@H](C)[C@@H](NC(=O)[C@@H](C)NC(=O)[C@@H](CCCCN)NC(=O)[C@@H](C)NC(=O)[C@@H](CO)NC(=O)CNC(=O)[C@@H](CC(C)C)NC(=O)[C@H](NC(=O)[C@@H](CCC(N)=O)NC(=O)[C@H](NC(=O)[C@@H](C)NC(=O)[C@H]1CCCN1C(=O)CNC(=O)[C@@H](C)NC(=O)[C@@H](CCCCN)NC(=O)[C@H](NC(=O)[C@H](NC(=O)CNC(=O)[C@@H](CC(=O)O)NC(=O)[C@@H](CCCNC(=N)N)NC(=O)[C@H](NC(=O)[C@@H](CC(N)=O)NC(=O)[C@@H](CCCNC(=N)N)NC(=O)CNC(=O)[C@@H](CCSC)NC(=O)[C@@H](CCCCN)NC(=O)[C@@H](CCC(=O)O)NC(=O)[C@H](NC(=O)[C@@H](CCCCN)NC(=O)[C@@H](CCCCN)NC(=O)[C@@H](Cc1ccccc1)NC(=O)[C@H](NC(=O)[C@@H](CCCCN)NC(=O)[C@@H](Cc1c[nH]c2ccccc12)NC(=O)[C@H](N)CCCNC(=N)N)[C@H](C)CC)[C@H](C)CC)[C@H](C)CC)[C@H](C)CC)C(C)C)[C@H](C)CC)C(C)C)C(N)=O [D-Q53 CecB] (H-[dR][dW][dK][dI][dF][dK][dK][dI][dE][dK][dM]G[dR][dN][dI][dR][dD]G[dI][dV][dK][dA]G[dP][dA][dI][dQ][dV][dL]G[dS][dA][dK][dA][dI]-NH2; N-terminus and C-terminus assumed) | did not show any significant inhibitory effect | 30 to 44 | 93 | did not show any significant inhibitory effect | 30 to 60 | 4 orders of magnitude | 1.07 ± 1.06 × 10^10 CFUs/mL | 7 orders of magnitude | 6.70 ± 6.6 × 10^8 CFUs/mL | 1/4 | significantly reduce | ~ 77%
RWKIFKKIEKMGRNIRDGIVKAGPAIQVLGSAKAI-NH2 [L-Q53 CecB] | did not show any significant inhibitory effect | 30 to 44 |  | did not show any significant inhibitory effect | 30 to 60 | 6 orders of magnitude | 7.03 ± 4.10 × 10^8 CFUs/mL | 10 orders of magnitude | 2.89 ± 2.38 × 10^5 CFUs/mL | 1/2 | did not show any significant effect | did not significantly reduce biofilm thickness

Reference: article PMC10419416, “Fighting Pseudomonas aeruginosa Infections: Antibacterial and Antibiofilm Activity of D-Q53 CecB, a Synthetic Analog of a Silkworm Natural Cecropin B Variant” (International Journal of Molecular Sciences, 2023)
